Data as given in the NIST ThermoML archive (doi:10.1016/j.jct.2013.12.025).
± gives the expanded uncertainty stated by the source.

Assay: xn = mol fraction of the nth substance listed
Conditions: 101 kPa, Liquid, Vibrating tube method

Work on C=C[Si](C)(C)O[Si](C)(C)C=C [1,3-diethenyl-1,1,3,3-tetramethyldisiloxane] + Clc1ccccc1 yielded a mass density (283.15 K, x1 = 0.05) of 1088.46 ± 1 kg/m3, a mass density (283.15 K, x1 = 0.0998) of 1062.49 ± 1 kg/m3 and a mass density (283.15 K, x1 = 0.15) of 1038.61 ± 1 kg/m3. For the same compound, the mass density (283.15 K, x1 = 0.1996) was 1017.1 ± 1 kg/m3, the mass density (283.15 K, x1 = 0.25) was 997.1 ± 1 kg/m3 and the mass density (283.15 K, x1 = 0.2999) was 978.91 ± 1 kg/m3. For the same compound, the mass density (283.15 K, x1 = 0.35) was 962.04 ± 1 kg/m3, the mass density (283.15 K, x1 = 0.3999) was 946.48 ± 1 kg/m3 and the mass density (283.15 K, x1 = 0.4496) was 932.12 ± 1 kg/m3. It also gave a mass density (283.15 K, x1 = 0.4999) of 918.61 ± 1 kg/m3, a mass density (283.15 K, x1 = 0.5499) of 906.09 ± 1 kg/m3 and a mass density (283.15 K, x1 = 0.6) of 894.37 ± 1 kg/m3. For the same compound, the mass density (283.15 K, x1 = 0.6469) was 884.06 ± 1 kg/m3, the mass density (283.15 K, x1 = 0.6998) was 873.18 ± 1 kg/m3 and the mass density (283.15 K, x1 = 0.7499) was 863.47 ± 1 kg/m3. The mass density (283.15 K, x1 = 0.7997) was 854.39 ± 1 kg/m3, the mass density (283.15 K, x1 = 0.8499) was 845.78 ± 1 kg/m3 and the mass density (283.15 K, x1 = 0.8996) was 837.7 ± 1 kg/m3. The mass density (283.15 K, x1 = 0.9497) was 830 ± 1 kg/m3, the mass density (283.15 K, x1 = 1) was 822.68 ± 1 kg/m3 and the mass density (288.15 K, x1 = 0.05) was 1083.08 ± 1 kg/m3. It also gave a mass density (288.15 K, x1 = 0.0998) of 1057.12 ± 1 kg/m3, a mass density (288.15 K, x1 = 0.15) of 1033.26 ± 1 kg/m3 and a mass density (288.15 K, x1 = 0.1996) of 1011.78 ± 1 kg/m3. The mass density (288.15 K, x1 = 0.25) was 991.8 ± 1 kg/m3, the mass density (288.15 K, x1 = 0.2999) was 973.63 ± 1 kg/m3 and the mass density (288.15 K, x1 = 0.35) was 956.8 ± 1 kg/m3. The mass density (288.15 K, x1 = 0.3999) was 941.25 ± 1 kg/m3, the mass density (288.15 K, x1 = 0.4496) was 926.93 ± 1 kg/m3 and the mass density (288.15 K, x1 = 0.4999) was 913.45 ± 1 kg/m3. It also gave a mass density (288.15 K, x1 = 0.5499) of 900.94 ± 1 kg/m3, a mass density (288.15 K, x1 = 0.6) of 889.27 ± 1 kg/m3 and a mass density (288.15 K, x1 = 0.6469) of 878.98 ± 1 kg/m3. For the same compound, the mass density (288.15 K, x1 = 0.6998) was 868.11 ± 1 kg/m3, the mass density (288.15 K, x1 = 0.7499) was 858.44 ± 1 kg/m3 and the mass density (288.15 K, x1 = 0.7997) was 849.39 ± 1 kg/m3. For the same compound, the mass density (288.15 K, x1 = 0.8499) was 840.8 ± 1 kg/m3, the mass density (288.15 K, x1 = 0.8996) was 832.75 ± 1 kg/m3 and the mass density (288.15 K, x1 = 0.9497) was 825.08 ± 1 kg/m3. The mass density (288.15 K, x1 = 1) was 817.77 ± 1 kg/m3, the mass density (293.15 K, x1 = 0.05) was 1077.71 ± 1 kg/m3 and the mass density (293.15 K, x1 = 0.0998) was 1051.77 ± 1 kg/m3. For the same compound, the mass density (293.15 K, x1 = 0.15) was 1027.97 ± 1 kg/m3, the mass density (293.15 K, x1 = 0.1996) was 1006.49 ± 1 kg/m3 and the mass density (293.15 K, x1 = 0.25) was 986.55 ± 1 kg/m3. For the same compound, the mass density (293.15 K, x1 = 0.2999) was 968.41 ± 1 kg/m3, the mass density (293.15 K, x1 = 0.35) was 951.57 ± 1 kg/m3 and the mass density (293.15 K, x1 = 0.3999) was 936.1 ± 1 kg/m3. For the same compound, the mass density (293.15 K, x1 = 0.4496) was 921.78 ± 1 kg/m3, the mass density (293.15 K, x1 = 0.4999) was 908.32 ± 1 kg/m3 and the mass density (293.15 K, x1 = 0.5499) was 895.84 ± 1 kg/m3. It also gave a mass density (293.15 K, x1 = 0.6) of 884.19 ± 1 kg/m3, a mass density (293.15 K, x1 = 0.6469) of 873.94 ± 1 kg/m3 and a mass density (293.15 K, x1 = 0.6998) of 863.11 ± 1 kg/m3. For the same compound, the mass density (293.15 K, x1 = 0.7499) was 853.45 ± 1 kg/m3, the mass density (293.15 K, x1 = 0.7997) was 844.44 ± 1 kg/m3 and the mass density (293.15 K, x1 = 0.8499) was 835.87 ± 1 kg/m3. For the same compound, the mass density (293.15 K, x1 = 0.8996) was 827.85 ± 1 kg/m3, the mass density (293.15 K, x1 = 0.9497) was 820.22 ± 1 kg/m3 and the mass density (293.15 K, x1 = 1) was 812.94 ± 1 kg/m3. It also gave a mass density (298.15 K, x1 = 0.05) of 1072.36 ± 1 kg/m3, a mass density (298.15 K, x1 = 0.0998) of 1046.38 ± 1 kg/m3 and a mass density (298.15 K, x1 = 0.15) of 1022.56 ± 1 kg/m3. For the same compound, the mass density (298.15 K, x1 = 0.1996) was 1001.12 ± 1 kg/m3, the mass density (298.15 K, x1 = 0.25) was 981.23 ± 1 kg/m3 and the mass density (298.15 K, x1 = 0.2999) was 963.12 ± 1 kg/m3. The mass density (298.15 K, x1 = 0.35) was 946.3 ± 1 kg/m3, the mass density (298.15 K, x1 = 0.3999) was 930.87 ± 1 kg/m3 and the mass density (298.15 K, x1 = 0.4496) was 916.57 ± 1 kg/m3. It also gave a mass density (298.15 K, x1 = 0.4999) of 903.14 ± 1 kg/m3, a mass density (298.15 K, x1 = 0.5499) of 890.68 ± 1 kg/m3 and a mass density (298.15 K, x1 = 0.6) of 879.04 ± 1 kg/m3. For the same compound, the mass density (298.15 K, x1 = 0.6469) was 868.82 ± 1 kg/m3, the mass density (298.15 K, x1 = 0.6998) was 858.02 ± 1 kg/m3 and the mass density (298.15 K, x1 = 0.7499) was 848.41 ± 1 kg/m3. The mass density (298.15 K, x1 = 0.7997) was 839.42 ± 1 kg/m3, the mass density (298.15 K, x1 = 0.8499) was 830.88 ± 1 kg/m3 and the mass density (298.15 K, x1 = 0.8996) was 822.88 ± 1 kg/m3. It also gave a mass density (298.15 K, x1 = 0.9497) of 815.27 ± 1 kg/m3, a mass density (298.15 K, x1 = 1) of 808.01 ± 1 kg/m3 and a mass density (303.15 K, x1 = 0.05) of 1066.76 ± 1 kg/m3. It also gave a mass density (303.15 K, x1 = 0.0998) of 1040.76 ± 1 kg/m3, a mass density (303.15 K, x1 = 0.15) of 1017.01 ± 1 kg/m3 and a mass density (303.15 K, x1 = 0.1996) of 995.49 ± 1 kg/m3. For the same compound, the mass density (303.15 K, x1 = 0.25) was 975.62 ± 1 kg/m3, the mass density (303.15 K, x1 = 0.2999) was 957.62 ± 1 kg/m3 and the mass density (303.15 K, x1 = 0.35) was 940.79 ± 1 kg/m3. It also gave a mass density (303.15 K, x1 = 0.3999) of 925.47 ± 1 kg/m3, a mass density (303.15 K, x1 = 0.4496) of 911.17 ± 1 kg/m3 and a mass density (303.15 K, x1 = 0.4999) of 897.77 ± 1 kg/m3. The mass density (303.15 K, x1 = 0.5499) was 885.33 ± 1 kg/m3, the mass density (303.15 K, x1 = 0.6) was 873.73 ± 1 kg/m3 and the mass density (303.15 K, x1 = 0.6469) was 863.55 ± 1 kg/m3. The mass density (303.15 K, x1 = 0.6998) was 852.81 ± 1 kg/m3, the mass density (303.15 K, x1 = 0.7499) was 843.25 ± 1 kg/m3 and the mass density (303.15 K, x1 = 0.7997) was 834.3 ± 1 kg/m3. For the same compound, the mass density (303.15 K, x1 = 0.8499) was 825.82 ± 1 kg/m3, the mass density (303.15 K, x1 = 0.8996) was 817.86 ± 1 kg/m3 and the mass density (303.15 K, x1 = 0.9497) was 810.3 ± 1 kg/m3. It also gave a mass density (303.15 K, x1 = 1) of 803.06 ± 1 kg/m3.
